Laboratory results reported in patent publication US12065436B2, “Cardiac sarcomere inhibitors” (Cytokinetics, Inc., priority 2018, dated 2024).

Target: bovine cardiac myofibrils (full-length cardiac myosin ATPase in the native sarcomere) (Bos taurus (Bovine), UniProt Q9BE39)
Assay: Skinned bovine cardiac myofibril ATPase assay (PK/LDH-coupled)
Type: biochemical
Conditions: Ca2+ activating to 75% of maximal rate; for CDMF75 IC15: concentration giving 15% inhibition; for IC50: read-out: CDMF75 IC50
How it was run: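 Triton-skinned bovine left-ventricle myofibrils (1 mg/mL) in PM 12 buffer (12 mM PIPES, 2 mM MgCl2, pH 6.8) with 50 μM ATP, 0.6 mM EGTA and CaCl2 set for 50% or 75% activation. Steady-state ATPase inhibition followed by PK/LDH-coupled NADH oxidation at 340 nm.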

Sequence of bovine cardiac myofibrils (full-length cardiac myosin ATPase in the native sarcomere) (Q9BE39 whole entry): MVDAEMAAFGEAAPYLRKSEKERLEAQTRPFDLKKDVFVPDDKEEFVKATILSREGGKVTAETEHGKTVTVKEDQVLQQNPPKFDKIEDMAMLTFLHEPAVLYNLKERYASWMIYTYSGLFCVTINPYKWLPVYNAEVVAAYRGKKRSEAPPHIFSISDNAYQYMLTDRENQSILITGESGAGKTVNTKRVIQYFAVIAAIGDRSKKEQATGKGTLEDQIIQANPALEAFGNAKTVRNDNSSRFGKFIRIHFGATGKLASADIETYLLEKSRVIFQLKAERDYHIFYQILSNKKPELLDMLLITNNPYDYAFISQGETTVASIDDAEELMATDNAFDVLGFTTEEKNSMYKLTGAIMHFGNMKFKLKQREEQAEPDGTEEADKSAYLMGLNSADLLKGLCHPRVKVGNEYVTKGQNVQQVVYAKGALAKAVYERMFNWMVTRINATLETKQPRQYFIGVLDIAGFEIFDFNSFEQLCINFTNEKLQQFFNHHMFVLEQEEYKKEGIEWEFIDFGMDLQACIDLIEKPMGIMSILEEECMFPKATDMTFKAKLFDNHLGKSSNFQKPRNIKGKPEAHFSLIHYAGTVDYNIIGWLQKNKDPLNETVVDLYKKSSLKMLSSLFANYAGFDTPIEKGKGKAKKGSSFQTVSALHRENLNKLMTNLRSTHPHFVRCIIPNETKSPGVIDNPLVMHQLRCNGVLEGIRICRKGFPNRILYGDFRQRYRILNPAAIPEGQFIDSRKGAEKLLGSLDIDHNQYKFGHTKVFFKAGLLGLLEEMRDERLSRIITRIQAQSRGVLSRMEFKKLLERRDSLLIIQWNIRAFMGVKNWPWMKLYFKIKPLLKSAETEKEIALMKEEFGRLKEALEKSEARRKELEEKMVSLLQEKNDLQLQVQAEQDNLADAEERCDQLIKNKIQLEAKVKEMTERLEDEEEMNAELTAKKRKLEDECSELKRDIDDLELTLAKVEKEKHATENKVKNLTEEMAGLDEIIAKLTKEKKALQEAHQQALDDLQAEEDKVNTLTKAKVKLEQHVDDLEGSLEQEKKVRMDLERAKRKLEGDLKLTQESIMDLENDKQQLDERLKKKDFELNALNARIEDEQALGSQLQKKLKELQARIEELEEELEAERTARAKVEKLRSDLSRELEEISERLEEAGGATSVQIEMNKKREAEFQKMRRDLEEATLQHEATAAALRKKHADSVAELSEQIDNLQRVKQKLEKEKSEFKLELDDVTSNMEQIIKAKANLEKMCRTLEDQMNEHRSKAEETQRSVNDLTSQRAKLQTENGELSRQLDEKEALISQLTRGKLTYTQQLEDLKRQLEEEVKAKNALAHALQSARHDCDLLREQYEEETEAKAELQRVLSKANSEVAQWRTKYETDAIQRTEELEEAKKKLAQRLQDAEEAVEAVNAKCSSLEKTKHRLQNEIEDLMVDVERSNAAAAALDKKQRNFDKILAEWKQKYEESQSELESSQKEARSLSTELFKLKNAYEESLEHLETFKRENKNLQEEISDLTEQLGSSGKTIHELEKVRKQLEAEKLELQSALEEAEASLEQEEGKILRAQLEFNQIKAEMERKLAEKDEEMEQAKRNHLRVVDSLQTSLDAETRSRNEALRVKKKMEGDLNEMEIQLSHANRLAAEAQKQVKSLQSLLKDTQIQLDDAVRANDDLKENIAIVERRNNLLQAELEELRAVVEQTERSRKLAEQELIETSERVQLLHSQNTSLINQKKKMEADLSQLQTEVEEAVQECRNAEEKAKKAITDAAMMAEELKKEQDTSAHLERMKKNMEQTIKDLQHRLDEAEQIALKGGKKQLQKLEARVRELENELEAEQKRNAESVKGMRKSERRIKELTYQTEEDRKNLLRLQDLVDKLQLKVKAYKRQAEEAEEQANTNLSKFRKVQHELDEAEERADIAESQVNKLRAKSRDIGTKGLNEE
Sequence of bovine cardiac myofibrils (full-length cardiac myosin ATPase in the native sarcomere) (P85100 whole entry partner): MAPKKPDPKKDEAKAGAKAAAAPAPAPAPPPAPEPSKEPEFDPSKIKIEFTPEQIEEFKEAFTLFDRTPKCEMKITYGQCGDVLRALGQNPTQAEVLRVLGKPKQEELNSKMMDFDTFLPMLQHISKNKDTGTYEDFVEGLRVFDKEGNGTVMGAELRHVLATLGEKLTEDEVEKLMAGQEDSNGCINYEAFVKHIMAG
Sequence of bovine cardiac myofibrils (full-length cardiac myosin ATPase in the native sarcomere) (Q3SZE5 whole entry partner): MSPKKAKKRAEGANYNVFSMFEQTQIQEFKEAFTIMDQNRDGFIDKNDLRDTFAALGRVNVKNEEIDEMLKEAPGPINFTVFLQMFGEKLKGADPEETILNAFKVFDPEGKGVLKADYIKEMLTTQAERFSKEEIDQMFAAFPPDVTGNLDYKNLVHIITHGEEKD

Row | CDMF75 IC15 [nM] | IC50 [nM] | Structure (SMILES)
1 | 1000 | 4400 | Cc1cc(C(=O)N[C@@H]2CCc3cc(-c4noc(C(F)F)n4)ccc32)cnn1 [Compound 687, (R)-N-(5-(5-(difluoromethyl)-1,2,4-oxadiazol-3-yl)-2,3-dihydro-1H-inden-1-yl)-6-methylpyridazine-4-carboxamide]
2 | 1700 | 6800 | COCc1nc(-c2ccc3c(c2)CC[C@H]3NC(=O)c2cc(C)no2)no1 [Compound 688, (R)-N-(5-(5-(methoxymethyl)-1,2,4-oxadiazol-3-yl)-2,3-dihydro-1H-inden-1-yl)-3-methylisoxazole-5-carboxamide]
3 | 600 | 2100 | COCc1nc(-c2ccc3c(c2)CC[C@H]3NC(=O)c2conc2C)no1 [Compound 689, (R)-N-(5-(5-(methoxymethyl)-1,2,4-oxadiazol-3-yl)-2,3-dihydro-1H-inden-1-yl)-3-methylisoxazole-4-carboxamide]
4 | 4400 | 21300 | COCc1nc(-c2ccc3c(c2)CC[C@H]3NC(=O)c2cc(C)on2)no1 [Compound 690, (R)-N-(5-(5-(methoxymethyl)-1,2,4-oxadiazol-3-yl)-2,3-dihydro-1H-inden-1-yl)-5-methylisoxazole-3-carboxamide]
5 | 1000 | 4600 | COCc1nc(-c2ccc3c(c2)CC[C@H]3NC(=O)c2nonc2C)no1 [Compound 692, (R)-N-(5-(5-(methoxymethyl)-1,2,4-oxadiazol-3-yl)-2,3-dihydro-1H-inden-1-yl)-4-methyl-1,2,5-oxadiazole-3-carboxamide]
6 | 900 | 3700 | COCc1nc(-c2ccc3c(c2)CC[C@H]3NC(=O)c2cc(OC)no2)no1 [Compound 693, (R)-3-methoxy-N-(5-(5-(methoxymethyl)-1,2,4-oxadiazol-3-yl)-2,3-dihydro-1H-inden-1-yl)isoxazole-5-carboxamide]
7 | 1800 | 7000 | COCc1nc(-c2ccc3c(c2)CC[C@H]3NC(=O)c2cnn(CCO)c2C)no1 [Compound 694, (R)-1-(2-hydroxyethyl)-N-(5-(5-(methoxymethyl)-1,2,4-oxadiazol-3-yl)-2,3-dihydro-1H-inden-1-yl)-5-methyl-1H-pyrazole-4-carboxamide]
8 | 2100 | 7800 | COCc1nc(-c2ccc3c(c2)CC[C@H]3NC(=O)c2cn(CCO)nc2C)no1 [Compound 695, (R)-1-(2-hydroxyethyl)-N-(5-(5-(methoxymethyl)-1,2,4-oxadiazol-3-yl)-2,3-dihydro-1H-inden-1-yl)-3-methyl-1H-pyrazole-4-carboxamide]
9 | 1100 | 4200 | COCc1nc(-c2ccc3c(c2)CC[C@H]3NC(=O)c2cnc(C)s2)no1 [Compound 696, (R)-N-(5-(5-(methoxymethyl)-1,2,4-oxadiazol-3-yl)-2,3-dihydro-1H-inden-1-yl)-2-methylthiazole-5-carboxamide]
10 | 900 | 3500 | COCc1nc(-c2ccc3c(c2)CC[C@H]3NC(=O)c2nnc(C)o2)no1 [Compound 698, (R)-N-(5-(5-(methoxymethyl)-1,2,4-oxadiazol-3-yl)-2,3-dihydro-1H-inden-1-yl)-5-methyl-1,3,4-oxadiazole-2-carboxamide]
11 | 1700 | 7500 | CCc1nc(-c2cc3c(cc2F)[C@H](NC(=O)c2cnn(C)c2)CC3)no1 [Compound 699, (R)-N-(5-(5-ethyl-1,2,4-oxadiazol-3-yl)-6-fluoro-2,3-dihydro-1H-inden-1-yl)-1-methyl-1H-pyrazole-4-carboxamide]
12 | 700 | 2600 | CCc1nc(-c2ccc3c(c2)CC[C@H]3NC(=O)c2cccc(C(O)CO)c2)no1 (stereo partly drawn) [Compound 700, 3-(1,2-dihydroxyethyl)-N-((R)-5-(5-ethyl-1,2,4-oxadiazol-3-yl)-2,3-dihydro-1H-inden-1-yl)benzamide]
13 | 300 | 1100 | O=C(N[C@@H]1COc2cc(-c3noc(C(F)F)n3)ccc21)c1cccc(CO)c1 [Compound 701, (S)-N-(6-(5-(difluoromethyl)-1,2,4-oxadiazol-3-yl)-2,3-dihydrobenzofuran-3-yl)-3-(hydroxymethyl)benzamide]
14 | 2600 | 11700 | Cc1noc(-c2ccc3c(c2)CC[C@H]3NC(=O)c2cnc(C)n2C)n1 [Compound 702, (R)-1,2-dimethyl-N-(5-(3-methyl-1,2,4-oxadiazol-5-yl)-2,3-dihydro-1H-inden-1-yl)-1H-imidazole-5-carboxamide]
15 | 1700 | 6200 | Cc1noc(-c2ccc3c(c2)CC[C@H]3NC(=O)c2nnc(C)o2)n1 [Compound 703, (R)-5-methyl-N-(5-(3-methyl-1,2,4-oxadiazol-5-yl)-2,3-dihydro-1H-inden-1-yl)-1,3,4-oxadiazole-2-carboxamide]
16 | 2600 | 11400 | Cc1noc(-c2ccc3c(c2)CC[C@H]3NC(=O)c2cnn(CCO)c2C)n1 [Compound 704, (R)-1-(2-hydroxyethyl)-5-methyl-N-(5-(3-methyl-1,2,4-oxadiazol-5-yl)-2,3-dihydro-1H-inden-1-yl)-1H-pyrazole-4-carboxamide]

Row | CDMF75 IC15 [nM] | IC50 [nM] | Structure (SMILES)
17 | 4900 | 28100 | Cc1cc(C(=O)N[C@@H]2CCc3cc(-c4nc(C)no4)ccc32)cnn1 [Compound 705, (R)-6-methyl-N-(5-(3-methyl-1,2,4-oxadiazol-5-yl)-2,3-dihydro-1H-inden-1-yl)pyridazine-4-carboxamide]
18 | 600 | 2500 | Cc1noc(-c2ccc3c(c2)CC[C@H]3NC(=O)c2cccc(CO)c2)n1 [Compound 706, (R)-3-(hydroxymethyl)-N-(5-(3-methyl-1,2,4-oxadiazol-5-yl)-2,3-dihydro-1H-inden-1-yl)benzamide]
19 | 900 | 3600 | O=C(N[C@@H]1COc2cc(-c3noc(C(F)F)n3)ccc21)c1cc(CO)ccn1 [Compound 707, (S)-N-(6-(5-(difluoromethyl)-1,2,4-oxadiazol-3-yl)-2,3-dihydrobenzofuran-3-yl)-4-(hydroxymethyl)picolinamide]
20 | 600 | 2800 | O=C(N[C@@H]1COc2cc(-c3noc(C(F)F)n3)ccc21)c1cc(CO)ccn1 [Compound 708, (S)-N-(6-(5-(difluoromethyl)-1,2,4-oxadiazol-3-yl)-2,3-dihydrobenzofuran-3-yl)-4-(hydroxymethyl)picolinamide]
21 | 400 | 1900 | O=C(N[C@@H]1COc2cc(-c3noc(C(F)F)n3)ccc21)c1ccnc(CO)c1 [Compound 710, (S)-N-(6-(5-(difluoromethyl)-1,2,4-oxadiazol-3-yl)-2,3-dihydrobenzofuran-3-yl)-2-(hydroxymethyl)isonicotinamide]
22 | 800 | 2800 | COCc1nc(-c2ccc3c(c2)OC[C@H]3NC(=O)c2cccc(CO)c2)no1 [Compound 711, (S)-3-(hydroxymethyl)-N-(6-(5-(methoxymethyl)-1,2,4-oxadiazol-3-yl)-2,3-dihydrobenzofuran-3-yl)benzamide]
23 | 500 | 2400 | COCc1nc(-c2ccc3c(c2)OC[C@H]3NC(=O)c2cccc(CO)c2)no1 [Compound 712, (S)-3-(hydroxymethyl)-N-(6-(5-(methoxymethyl)-1,2,4-oxadiazol-3-yl)-2,3-dihydrobenzofuran-3-yl)benzamide]
24 | 2700 | 11000 | COCc1nc(-c2ccc3c(c2)OC[C@H]3NC(=O)c2cc(CO)ccn2)no1 [Compound 713, (S)-4-(hydroxymethyl)-N-(6-(5-(methoxymethyl)-1,2,4-oxadiazol-3-yl)-2,3-dihydrobenzofuran-3-yl)picolinamide]
25 | 1400 | 5500 | COCc1nc(-c2ccc3c(c2)OC[C@H]3NC(=O)c2ccnc(CO)c2)no1 [Compound 714, (S)-2-(hydroxymethyl)-N-(6-(5-(methoxymethyl)-1,2,4-oxadiazol-3-yl)-2,3-dihydrobenzofuran-3-yl)isonicotinamide]
26 | 400 | 1500 | CCc1nc(-c2ccc3c(c2)CC[C@H]3NC(=O)c2cccc(C(C)O)c2)no1 (stereo partly drawn) [Compound 715, N-((R)-5-(5-ethyl-1,2,4-oxadiazol-3-yl)-2,3-dihydro-1H-inden-1-yl)-3-(1-hydroxyethyl)benzamide]
27 | 1400 | 5900 | Cc1noc(-c2ccc3c(c2)CC[C@H]3NC(=O)c2ccnc(C(F)F)c2)n1 [Compound 716, (R)-2-(difluoromethyl)-N-(5-(3-methyl-1,2,4-oxadiazol-5-yl)-2,3-dihydro-1H-inden-1-yl)isonicotinamide]
28 | 400 | 1800 | Cc1nc(-c2ccc3c(c2)OC[C@H]3NC(=O)c2cccc(CO)c2)no1 [Compound 717, (S)-3-(hydroxymethyl)-N-(6-(5-methyl-1,2,4-oxadiazol-3-yl)-2,3-dihydrobenzofuran-3-yl)benzamide]
29 | 1100 | 5200 | Cc1nc(-c2ccc3c(c2)OC[C@H]3NC(=O)c2cc(CO)ccn2)no1 [Compound 718, (S)-4-(hydroxymethyl)-N-(6-(5-methyl-1,2,4-oxadiazol-3-yl)-2,3-dihydrobenzofuran-3-yl)picolinamide]
30 | 800 | 3700 | Cc1nc(-c2ccc3c(c2)OC[C@H]3NC(=O)c2ccnc(CO)c2)no1 [Compound 719, (S)-2-(hydroxymethyl)-N-(6-(5-methyl-1,2,4-oxadiazol-3-yl)-2,3-dihydrobenzofuran-3-yl)isonicotinamide]
31 | 2300 | 10400 | CCc1nc(-c2ccc3c(c2)CC[C@H]3NC(=O)c2cc(C(C)=O)ccn2)no1 [Compound 720, (R)-4-acetyl-N-(5-(5-ethyl-1,2,4-oxadiazol-3-yl)-2,3-dihydro-1H-inden-1-yl)picolinamide]
